The text below walks through data of patent US12043612B2, “Methods of manufacturing a bifunctional compound, ultrapure forms of the bifunctional compound, and dosage forms comprising the same” (Arvinas Operations, Inc., priority 2020, dated 2024).

The nature of series [1]: Metabolite in liver microsomes and hepatocytes. Format: in vitro ADME. Conditions: male human, monkey, dog, rat, and mouse liver microsomes and hepatocytes.
Series [2] in a line: Metabolite in female mouse liver microsomes. Format: in vitro ADME.
Series [3] can be described thus: 90-minute non-sink dissolution, pH 2 HCl shifted to pH 6.5 SIF. The series is classed as physicochemical. Conditions: 1 mg/mL in pH 2 HCl, shift to pH 6.5 SIF at 30 minutes. On the procedure:
FIG. 11 is a series of line graphs showing the dissolution of crystalline vs. amorphous Compound A API. API (1 mg/mL) is present in gastric conditions (pH=2), which is 2× diluted with FaSSIF at 30 minutes to increase the pH to 6.5. (API=active pharmaceutical ingredient; FaSSIF=fasted state simulated intestinal fluid.)
FIG. 12 is a series of line graphs showing the non-sink dissolution of spray-dried amorphous Compound A produced at multiple scales. API (500 μg/mL) is present in gastric conditions (pH=2), which is 2× Diluted with FaSSIF at 30 minutes to increase the pH to 6.5.
A 90-minute non-sink dissolution experiment was conducted in which a Compound A suspension was introduced into pH 2 HCl at a final concentration of 1 mg/mL, which was then periodically sampled and prepared for analysis via centrifugation. A shift to pH 6.5 SIF was carried out 30 minutes into the experiment.

Series [4] in a line: Membrane flux experiment (donor/receiver compartments, SIF bile salts). Conditions: amorphous suspension as donor compartment contents.
Method: A membrane flux experiment was conducted in which a fixed amount of compound was introduced into the donor compartment at various concentrations of the SIF bile salts, and appearance of drug was monitored on the receiver side.
Series [5] in a line: Rat pharmacokinetic studies with solutions and spray-dried dispersions. Conditions: male, rat, in vivo, po, 150 mg/kg.
Series [6] is described as follows: Stability of amorphous Compound A (spray-dried intermediate). The series is classed as physicochemical. The procedure:
The stability of amorphous Compound A was assessed at three stability conditions: 2-8° C.; 25° C./60% RH; and 40° C./75% RH for a period of 12 months.
During stability testing, amorphous Compound A was stored in wire-tied low-density polyethylene bags placed in heat-induction sealed, high-density polyethylene (HDPE) bottles containing a desiccant canister, and capped with polypropylene-lined closures.

Series [7] in a line: Glass transition and recrystallization temperature of amorphous solids. Format: physicochemical. The procedure: Thus, while crystals of Compound A are quite stable, there is a significant barrier to transforming to a crystalline state from an amorphous form. Indeed, a ramped temperature increase of a partially-crystalline sample does eventually lead to a recrystallization event, but not until a temperature of 200-220° C. is achieved. […] As discussed below, this robust resistance to crystallization is preserved even in the presence of water.
The amorphous form of pure Compound A is robust with a high Tg and even higher recrystallization temperature. The glass transition temperature does decrease under the plasticizing conditions of high humidity. However, the value is still well above the commonly applied 40-50° C. difference between Tg and any temperature the clinical presentation will encounter.

Where [8] appears, read: after 6 months of storage at 2-8° C.
Setting [9] is: after 12 months at 25° C./60% RH.
[10] abbreviates: after 12 months at 40° C./75% RH.

Molecules are shown by their SMILES.

On to `N#Cc1ccc(O[C@H]2CC[C@H](NC(=O)c3ccc(N4CCC(C(=O)O)CC4)nn3)CC2)cc1Cl` [Impurity 1], for which the occurrence as metabolite entry in series [1] is “A process impurity resulting from over oxidation of Intermediate 2 in Step 2. This impurity is also a metabolite in male human, monkey, dog, rat, and mouse liver microsomes and hepatocytes”.
Turning to `N#Cc1ccc(O[C@H]2CC[C@H](NC(=O)c3ccc(N4CCC(CO)CC4)nn3)CC2)cc1Cl` [Intermediate 2, N-((1r,4r)-4-(3-chloro-4-cyanophenoxy)cyclohexyl)-6-(4-(hydroxymethyl)piperidin-1-yl)pyridazine-3-carboxamide], the occurrence as metabolite result in series [2] is “A process impurity in Intermediate 3 and can be formed as a by-product of the reductive amination in Step 3. This impurity is also a metabolite in female mouse liver microsomes”.
With `N#Cc1ccc(O[C@H]2CC[C@H](NC(=O)c3ccc(N4CCC(CN5CCN(c6cc7c(cc6F)C(=O)N(C6CCC(=O)NC6=O)C7=O)CC5)CC4)nn3)CC2)cc1Cl` (some centres unmarked) [Spray-Dried Amorphous Compound A], in series [3], the “non-sink dissolution, amorphous vs crystalline (FIG. 11)” value was “Higher concentrations are achieved in the gastric phase of the experiment and sustained in the intestinal phase”. For the same molecule, the “Flux (μg-min^−1-cm^−2)” value in series [4] amounted to 0.15 μg-min^−1-cm^−2. In series [5], this molecule showed an AUC of 19400 ng·h/mL. Besides, the purity in series [6] (setting [8]) turned out to be 95.7%; in series [6] (setting [9]), 97.7%; in series [6] (setting [10]) it was 98%. Moreover, the figures for the “water (major impurity)” value in series [6] (setting [8]) and in series [6] (setting [9]) were 0.9% and 1.62%, respectively. Moreover, the “water (major impurity), Karl Fischer titration” value in series [6] (setting [10]) worked out at 2.16%. For the same molecule, the “recrystallization of the amorphous form” value in series [6] (all three storage conditions, any time during the studies) is listed as “no evidence of recrystallization”. The “Glass Transition Temperature” value in series [7] (Temperature/RH 25/0 (° C./%)) turned out to be 146 °C; in series [7] (Temperature/RH 40/75 (° C./%)), 103 °C.
